Key:
[1] = tested on: microdissected human scalp HFs; assay: Hair cycle score / staging (catagen induction) in HF organ culture; type: cell-based; details: 500 μM (Phenirat 1:1), 6 days of culture, compared to vehicle
Procedure: (§1) HFs were treated with either the vehicle, sandal pentanol, Phenirat or a mixture of sandal pentanol and Phenirat. To analyse modifications of the hair cycle, Ki67/TUNEL were performed and used to evaluate hair cycle score and hair matrix keratinocytes proliferation and apoptosis.
Human scalp samples were obtained after face-lifting procedure and used at the same day for microdissecting human anagen VI scalp HFs. Microdissected human scalp HFs were cultured at 37° C. with 5% CO2 in a minimal media of William's E media (Gibco, Life technologies) supplemented with 2 mM of L-glutamine (Gibco), 10 ng/ml hydrocortisone (Sigma-Aldrich), 10 μg/ml insulin (Sigma-Aldrich) and 1% penicillin/streptomycin mix (Gibco) (WEM) as previously described (Philpott, 1990; Kloepper, 2010; Langan et al, 2015). […]
(§2) Phenirat was added 30 min before sandal pentanol. Hair shaft elongation was measured daily using an inverted binocular microscope (Philpott et al., 1990) and culture medium was replaced every second day. […]
To investigate the specificity of the effect on hair growth of OR2AT4 stimulation by sandal pentanol, microdissected HFs were cultured with sandal pentanol and/or Phenirat, and hair cycle performed staging analysis as previously described (Kloepper, 2010; Langan et al, 2015). Hair cycle score was measured both in treated and vehicle HFs after 6 days of culture. […]

[2] = tested on: hair matrix keratinocytes; assay: Ki67/TUNEL staining of hair matrix keratinocytes in HF organ culture; type: cell-based, human; details: 500 μM (Phenirat 1:1), 6 day-culture, compared to vehicle
Procedure: as §1
OCT embedded samples were sectioned (6 μm thickness) with a cryostat. Sections were fixed in 4% paraformaldehyde, pre-incubated with 10% of goat serum (for OR2AT4) or 5% goat serum+0.3% Tritton X-100 (for cleaved-caspase 3) and incubated with the corresponding primary antibody at 4° C. overnight ( 1/100 for OR2AT4 and 1/400 for cleaved-caspase 3). Secondary antibody incubation was performed at RT for 45 min. Counterstaining with DAPI (1 μg/mL) was performed to visualize nuclei. For TGFb2, samples were fixed in acetone and the endogenous peroxidases were blocked with 3% of H2O2. This step was followed by an avidin-biotin blocking step and a preincubation with TNB buffer (Tris HCl+NaCl+Casein). The corresponding primary antibody was incubated at 4° C. overnight ( 1/1000 for TGFb2). Secondary antibody incubation was performed at RT for 45 min before using the Tyramide signal amplification kit (Perkin Elmer). Counterstaining with DAPI was performed to visualize nuclei. To stain apoptotic and proliferating cells, we have used the apoptag kit (Merck Milipore) following manufacture's protocol followed by Ki67 staining. The primary antibody was incubated overnight (Ki67, 1/20) after the TdT-enzyme step. The secondary antibody was incubated for 45 min at RT after the fluorescent-labelled anti-Digoxigenin step of the apoptag kit. Counterstaining with DAPI was performed to visualize nuclei. Negative controls were performed by omitting the primary antibody. Images were taken using a Keyence fluorescence microscope (Osaka, Japan) maintaining a constant set exposure time throughout imaging for further analysis.
After 24 h of incubation, WEM medium was replaced and HFs were treated with the corresponding substances for 6 days following experimental conditions. HFs were treated either with vehicle (0.1% DMSO), sandal pentanol (500 μM), Phenirat (in a ratio 1:1 to the agonist), or a mixture sandal pentanol+Phenirat.
Staining intensity was evaluated in well-defined reference areas by quantitative (immuno-)histomorphometry, as previously described (Bertolini et al., 2014) using NIH IMAGE software (NIH, Bethesda, Md., USA).
With reference to the evidence of FIG. 4, to investigate whether sandal pentanol influences hair matrix keratinocytes proliferation and apoptosis, Ki67/TUNEL staining was performed. Proliferating (diagram of FIG. 4A) and apoptotic (diagram of FIG. 4B) hair matrix keratinocytes were counted in the hair matrix of treated and vehicle HFs. […]

TGFβ2 = TGFβ2 immunofluorescence in ORS keratinocytes of cultured HFs; type: cell-based, human; details: 500 μM (Phenirat 1:1), 6 day-treatment, proximal ORS keratinocytes, compared to vehicle
Procedure: In addition, TGFβ2, a potent catagen inducer, was investigated with reference to the same above compounds.
OCT embedded samples were sectioned (6 μm thickness) with a cryostat. Sections were fixed in 4% paraformaldehyde, pre-incubated with 10% of goat serum (for OR2AT4) or 5% goat serum+0.3% Tritton X-100 (for cleaved-caspase 3) and incubated with the corresponding primary antibody at 4° C. overnight ( 1/100 for OR2AT4 and 1/400 for cleaved-caspase 3). Secondary antibody incubation was performed at RT for 45 min. Counterstaining with DAPI (1 μg/mL) was performed to visualize nuclei. For TGFb2, samples were fixed in acetone and the endogenous peroxidases were blocked with 3% of H2O2. This step was followed by an avidin-biotin blocking step and a preincubation with TNB buffer (Tris HCl+NaCl+Casein). […] Images were taken using a Keyence fluorescence microscope (Osaka, Japan) maintaining a constant set exposure time throughout imaging for further analysis. […]
Staining intensity was evaluated in well-defined reference areas by quantitative (immuno-)histomorphometry, as previously described (Bertolini et al., 2014) using NIH IMAGE software (NIH, Bethesda, Md., USA). […]
TGFβ2 expression was quantified using Image J. Mean±SEM, n=14-22 HFs from 2 patients, Kruskal-Wallis and Dunn's multiple comparisons test as post hoc test, *p<0.05, ***p<0.001, and Mann-Whitney test, ns. […]

[3] = target: T1, olfactory receptor OR2AT4 (Homo sapiens, UniProt A6NND4); details: according to Busse et al.; cited from earlier work
T1 sequence (A6NND4 1-320): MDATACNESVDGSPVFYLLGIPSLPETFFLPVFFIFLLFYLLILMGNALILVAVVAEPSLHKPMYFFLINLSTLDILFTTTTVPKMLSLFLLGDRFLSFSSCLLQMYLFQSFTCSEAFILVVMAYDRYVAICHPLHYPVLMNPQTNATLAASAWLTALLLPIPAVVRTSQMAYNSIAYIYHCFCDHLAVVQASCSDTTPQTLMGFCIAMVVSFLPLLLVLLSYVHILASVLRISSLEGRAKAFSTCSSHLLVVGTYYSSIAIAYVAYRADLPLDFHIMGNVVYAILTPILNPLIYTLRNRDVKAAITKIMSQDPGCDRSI

[4] = tested on: cultured human keratinocytes; details: Busse et al.; cited from earlier work
[5] = tested on: microdissected human scalp HFs; assay: Hair shaft elongation in HF organ culture; type: cell-based; details: 500 μM, cultured microdissected HFs from two donors, compared to vehicle
Procedure: (§3) Then, in order to assess whether stimulation of OR2AT4 can influence human hair growth, microdissected HFs were treated with sandal pentanol at a concentration of 500 μM, as the agonist and a hair shaft elongation measurement was performed (see Philpott et al., 1990). In addition, a kinase assay was conducted in order to identify which signalling pathways are involved in the specific stimulation of OR2AT4 by sandal pentanol.
Human scalp samples were obtained after face-lifting procedure and used at the same day for microdissecting human anagen VI scalp HFs. […]
as §2
To check whether the activation of OR2AT4 can influence the hair cycle of human HF, microdissected human HFs were specifically stimulated with the potential agonist, sandal pentanol. The effect of the sandal pentanol treatment was evaluated by measuring hair shaft elongation compared to vehicle.
HF elongation was measured in cultured microdissected HFs. […]

[6] = tested on: apoptotic signalling pathway; assay: Kinase assay of signalling pathways after OR2AT4 stimulation; type: cell-based, human; details: specific stimulation of OR2AT4 in microdissected HFs
Procedure: as §3

keratinocytes = details: long-term stimulation, in vitro wound scratch assay, Busse et al.; cited from earlier work
[7] = tested on: human skin organ cultures; details: Busse et al.; cited from earlier work

Row | SMILES | catagen induction / anagen prolongation (hair cycle score) [1] | hair matrix keratinocyte apoptosis (TUNEL) [2] | hair matrix keratinocyte proliferation (Ki67) [2] | TGFβ2 expression at the protein level (TGFβ2) | activity at olfactory receptor OR2AT4 [3] | Ca2+ signals [4] | hair shaft elongation [5] | effect on apoptotic signalling pathway [6] | cell proliferation, migration and regeneration of keratinocyte monolayers (keratinocytes) | epidermal wound healing [7]
1 | CC(C)C(=O)OCCOc1ccccc1 [Phenirat, phenoxyethyl isobutyrate, reference compound] | did not prolong anagen | this effect is not obtained | did not change | no change | specific antagonist |  |  |  |  | 
2 | CC1=CC[C@@H](CC[C@@H](C)CO)C1(C)C (stereo in doubt) [brahmanol, 2-Methyl-4-(2,2,3-trimethyl-3-cyclopenten-1-yl)butanol] |  |  |  |  | agonists | induce Ca^2+ signals |  |  |  | 
3 | CC1=CCC(CCC(C)C(C)O)C1(C)C (centres unmarked) [sandal pentanol, 3-methyl-5-(2,2,3-trimethylcyclopent-3-en-1-yl)pentan-2-ol] | delayed catagen induction | significantly decreased | did not change | significant decrease | agonists | induce Ca^2+ signals | stimulates hair shaft elongation | Inhibits Apoptotic Signalling Pathway | positively affects | enhances epidermal wound healing
